Reference: article PMC3961306, “Comparison of the Cancer Gene Targeting and Biochemical Selectivities of All Targeted Kinase Inhibitors Approved for Clinical Use” (PLoS ONE, 2014)

How the values were obtained:
Assay in all cases: Kinase profiling in a biochemical assay panel (mobility shift assays and ELISA), %-inhibition at 1 μM; selectivity entropy
[1] = target: panel of more than 300 wild-type and mutant kinases (313 kinase panel) (Homo sapiens, UniProt Q02779)
[2] = target: panel of more than 300 wild-type and mutant kinases (313 kinase panel) (Homo sapiens, UniProt P78368)
[3] = target: panel of more than 300 wild-type and mutant kinases (313 kinase panel) (Homo sapiens, UniProt P14616)
[4] = target: panel of more than 300 wild-type and mutant kinases (313 kinase panel) (Homo sapiens, UniProt P07949, G691S)
[5] = target: panel of more than 300 wild-type and mutant kinases (313 kinase panel) (Homo sapiens, UniProt P27361)
[6] = target: panel of more than 300 wild-type and mutant kinases (313 kinase panel) (Homo sapiens, UniProt Q9Y5S2)
[7] = target: panel of more than 300 wild-type and mutant kinases (313 kinase panel) (Homo sapiens, UniProt P31749)
[8] = target: panel of more than 300 wild-type and mutant kinases (313 kinase panel) (Homo sapiens, UniProt Q16288)
[9] = target: T1, panel of more than 300 wild-type and mutant kinases (313 kinase panel) (Homo sapiens, UniProt Q96L34)
T1 sequence (Q96L34 1-752): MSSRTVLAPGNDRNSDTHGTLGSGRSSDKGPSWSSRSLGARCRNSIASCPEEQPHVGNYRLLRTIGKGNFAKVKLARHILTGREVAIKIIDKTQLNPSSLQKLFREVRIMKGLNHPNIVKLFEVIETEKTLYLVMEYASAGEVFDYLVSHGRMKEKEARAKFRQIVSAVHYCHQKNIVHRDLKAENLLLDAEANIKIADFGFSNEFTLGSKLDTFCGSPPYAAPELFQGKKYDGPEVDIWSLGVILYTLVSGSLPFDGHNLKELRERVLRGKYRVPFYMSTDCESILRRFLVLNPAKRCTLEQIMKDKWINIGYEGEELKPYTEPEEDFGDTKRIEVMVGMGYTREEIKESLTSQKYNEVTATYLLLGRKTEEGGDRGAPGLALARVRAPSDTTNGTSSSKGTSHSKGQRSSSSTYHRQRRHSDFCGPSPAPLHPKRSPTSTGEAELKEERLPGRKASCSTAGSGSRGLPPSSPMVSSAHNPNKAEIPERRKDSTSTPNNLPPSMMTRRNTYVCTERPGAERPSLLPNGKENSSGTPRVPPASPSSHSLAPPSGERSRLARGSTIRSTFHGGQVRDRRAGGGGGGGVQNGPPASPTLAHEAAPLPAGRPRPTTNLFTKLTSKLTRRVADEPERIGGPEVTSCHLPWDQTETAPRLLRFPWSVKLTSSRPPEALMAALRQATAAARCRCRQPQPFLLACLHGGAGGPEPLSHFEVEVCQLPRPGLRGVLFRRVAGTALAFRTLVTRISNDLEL

[10] = target: panel of more than 300 wild-type and mutant kinases (313 kinase panel) (Homo sapiens, UniProt Q9BUB5)
[11] = target: T2, panel of more than 300 wild-type and mutant kinases (313 kinase panel) (Homo sapiens, UniProt Q06418)
T2 sequence (Q06418 41-890): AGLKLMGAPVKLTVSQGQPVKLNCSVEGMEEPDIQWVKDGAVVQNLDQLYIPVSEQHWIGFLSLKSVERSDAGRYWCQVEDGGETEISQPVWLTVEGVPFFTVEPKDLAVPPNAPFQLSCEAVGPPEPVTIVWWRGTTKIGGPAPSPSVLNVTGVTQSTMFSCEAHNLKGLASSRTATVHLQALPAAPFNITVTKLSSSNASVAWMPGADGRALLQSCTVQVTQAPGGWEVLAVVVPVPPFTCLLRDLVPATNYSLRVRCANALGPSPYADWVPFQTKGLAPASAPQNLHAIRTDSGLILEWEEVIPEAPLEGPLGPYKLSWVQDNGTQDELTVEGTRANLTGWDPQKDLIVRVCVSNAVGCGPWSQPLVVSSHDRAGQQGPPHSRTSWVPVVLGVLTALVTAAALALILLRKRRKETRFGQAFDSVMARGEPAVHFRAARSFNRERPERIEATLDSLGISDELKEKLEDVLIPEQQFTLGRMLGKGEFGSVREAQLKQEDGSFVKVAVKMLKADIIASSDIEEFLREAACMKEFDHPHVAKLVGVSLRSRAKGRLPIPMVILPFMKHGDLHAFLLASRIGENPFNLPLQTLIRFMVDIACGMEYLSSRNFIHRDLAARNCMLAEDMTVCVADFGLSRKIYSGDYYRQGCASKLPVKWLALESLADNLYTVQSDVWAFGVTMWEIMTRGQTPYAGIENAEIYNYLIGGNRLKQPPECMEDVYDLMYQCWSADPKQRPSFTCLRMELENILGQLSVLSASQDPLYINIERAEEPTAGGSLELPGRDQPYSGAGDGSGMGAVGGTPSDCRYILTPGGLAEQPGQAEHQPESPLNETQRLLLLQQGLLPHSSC

Row | SMILES | %-inhibition of MLK2 ([1]; kinase MLK2, 1 μM) | %-inhibition, CK1γ2 ([2]; kinase CK1γ2, 1 μM compound) | %-inhibition of IRR ([3]; kinase IRR, compound at 1 μM) | %-inhibition of RET(G691S) ([4]; kinase RET(G691S), 1 μM) | %-inhibition of Erk1 ([5]; kinase Erk1, compound at 1 μM) | %-inhibition of MRCKβ ([6]; kinase MRCKβ, 1 μM) | %-inhibition, AKT1 ([7]; kinase AKT1, 1 μM compound) | %-inhibition of TRKC ([8]; kinase TRKC, 1 μM) | %-inhibition of MARK4 ([9]; kinase MARK4, compound at 1 μM) | %-inhibition of MNK1 ([10]; kinase MNK1, 1 μM) | %-inhibition of TYRO3 ([11]; kinase TYRO3, compound at 1 μM) | further results
1 | CO[C@H]1C[C@@H]2CC[C@@H](C)[C@@](O)(O2)C(=O)C(=O)N2CCCC[C@H]2C(=O)O[C@H]([C@H](C)C[C@@H]2CC[C@@H](OCCO)[C@H](OC)C2)CC(=O)[C@H](C)/C=C(\C)[C@@H](O)[C@@H](OC)C(=O)[C@H](C)C[C@H](C)/C=C/C=C/C=C/1C [everolimus] | 4% | -2.3% | 0.808% | -4.43% | -0.906% | 0.688% | -7% | -5% | -27% | -0.485% | -2.32% | 
2 | CC(=O)Nc1cccc(-n2c(=O)n(C3CC3)c(=O)c3c(Nc4ccc(I)cc4F)n(C)c(=O)c(C)c32)c1 [trametinib] | 5% | -2.15% |  | -1.48% | -1.14% | -2.56% | -3% | -7.43% | -15% | -3% | -2.65% | %-inhibition of IRR ([3]; 1 µM): 1.35%
3 | CCCS(=O)(=O)Nc1ccc(F)c(C(=O)c2c[nH]c3ncc(-c4ccc(Cl)cc4)cc23)c1F [vemurafenib] | 5% | 0.506% | 21% | 23% | 0.0533% | -5% | -4.52% | 5% | 3.78% | 23% | 3.16% | 
4 | C#Cc1cccc(Nc2ncnc3cc(OCCOC)c(OCCOC)cc23)c1 [erlotinib] |  |  |  |  |  |  |  |  |  |  |  | %-inhibition of MLK2 ([1]; 1 µM): -1.75%; %-inhibition, CK1γ2 ([2]; 1 µM): 8%; %-inhibition of IRR ([3]; 1 µM): -12%; %-inhibition of RET(G691S) ([4]; 1 µM): 73%; %-inhibition of Erk1 ([5]; 1 µM): 0.357%; %-inhibition of MRCKβ ([6]; 1 µM): -4%; %-inhibition, AKT1 ([7]; 1 µM): 12%; %-inhibition of TRKC ([8]; 1 µM): 13%; %-inhibition of MARK4 ([9]; 1 µM): 14%; %-inhibition of MNK1 ([10]; 1 µM): 74%; %-inhibition of TYRO3 ([11]; 1 µM): 20%
5 | CNC(=O)c1cc(Oc2ccc(NC(=O)Nc3ccc(Cl)c(C(F)(F)F)c3)c(F)c2)ccn1 [regorafenib] | 0.795% | -3% | -4% | 103% | -2% | -17% | -5.68% | 93% | -16% | 7% | 34% | 
6 | CO[C@H]1C[C@@H]2CC[C@@H](C)[C@@](O)(O2)C(=O)C(=O)N2CCCC[C@H]2C(=O)O[C@H]([C@H](C)C[C@@H]2CC[C@@H](OC(=O)C(C)(CO)CO)[C@H](OC)C2)CC(=O)[C@H](C)/C=C(\C)[C@@H](O)[C@@H](OC)C(=O)[C@H](C)C[C@H](C)/C=C/C=C/C=C/1C [temsirolimus] | 9% | -3.32% | -13% | -6% | 0.373% | -4% | -4% | -6.53% | -26% | -19% | -1.34% | 
7 | CS(=O)(=O)CCNCc1ccc(-c2ccc3ncnc(Nc4ccc(OCc5cccc(F)c5)c(Cl)c4)c3c2)o1 [lapatinib] | 1.78% | -1.22% | -4% |  | -4% | -5% | 2.63% | 4% | 10% | 11% | 13% | %-inhibition of RET(G691S) ([4]; 1 µM): -3%
